Test results reported in the NIST ThermoML archive (doi:10.1016/j.jct.2015.10.016).
± gives the expanded uncertainty stated by the source.

Key:
[1] = Molar enthalpy of transition or fusion; settings: Crystal; DSC
[2] = Crystal; DTA

Molar enthalpy of transition or fusion [1]: 11.2 ± 0.502 kcal/mol
Normal melting temperature [2]: 235.40 ± 1.1 °C
Structure (SMILES): O=C(NC[C@H]1CN(c2ccc(N3CCOCC3=O)cc2)C(=O)O1)c1ccc(Cl)s1 [Rivaroxaban]
